Assay results: PMC2151509 (The Journal of General Physiology, 2006)
Changes are numbered by the printed parent chain.

Legend:
[1] = molecular target: T1, rat olfactory CNGA2 channel (homomeric) (Rattus norvegicus, UniProt Q00195, E342K); experiment: inside-out patch clamp, cGMP-activated current, Hill fit; type: cell-based
T1 sequence (Q00195 1-664 E342K): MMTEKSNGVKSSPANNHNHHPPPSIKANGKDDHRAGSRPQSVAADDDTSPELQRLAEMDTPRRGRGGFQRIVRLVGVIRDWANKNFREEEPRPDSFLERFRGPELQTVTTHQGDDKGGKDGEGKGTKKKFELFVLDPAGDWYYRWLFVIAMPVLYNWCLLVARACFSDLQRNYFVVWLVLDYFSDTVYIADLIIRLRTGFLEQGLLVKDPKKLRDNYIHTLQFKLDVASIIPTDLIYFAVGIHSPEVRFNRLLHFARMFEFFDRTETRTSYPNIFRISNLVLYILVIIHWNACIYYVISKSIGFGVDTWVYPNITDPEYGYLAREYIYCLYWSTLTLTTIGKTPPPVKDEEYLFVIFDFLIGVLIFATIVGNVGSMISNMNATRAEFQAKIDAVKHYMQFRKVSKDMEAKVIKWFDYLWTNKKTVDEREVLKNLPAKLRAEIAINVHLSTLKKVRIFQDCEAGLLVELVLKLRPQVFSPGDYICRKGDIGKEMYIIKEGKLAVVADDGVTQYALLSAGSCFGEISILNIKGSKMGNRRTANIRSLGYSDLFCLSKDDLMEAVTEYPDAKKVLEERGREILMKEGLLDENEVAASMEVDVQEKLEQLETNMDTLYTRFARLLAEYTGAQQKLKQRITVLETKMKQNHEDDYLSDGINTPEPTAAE

[2] = molecular target: T2, rat olfactory CNGA2 channel (homomeric) (Rattus norvegicus, UniProt Q00195); experiment: inside-out patch clamp, cGMP-activated current; type: biochemical; settings: agonist; 5 mM cGMP; 145 mM NaCl, pH 7.4, 21 °C
T2 sequence (Q00195 1-664): T1 sequence (Q00195 1-664 E342K) with K342E

Nc1nc2c(ncn2[C@@H]2O[C@@H]3COP(=O)(O)O[C@H]3[C@H]2O)c(=O)[nH]1 [cGMP]
EC50 [1]: 8.6 ± 1.2 µM | inside-out patch clamp, cGMP-activated current [2]: Macroscopic cGMP-activated currents in different NaCl dilutions in one inside-out patch with WT CNG channels
